Laboratory results published in patent US20120040977A1, “INHIBITORS OF HCV NS5A” (PRESIDIO PHARMACEUTICALS, INC., priority 2009, published 2012).

System: HCV genotype 1b replicon
Experiment: HCV replicon assay (HCV 1b_Huh-Luc/Neo-ET cell line, luciferase readout)
Format: cell-based
Conditions: Hepatitis C virus; bicistronic genotype 1b replicon in Huh 7 cells, 72 h incubation, luciferase enzyme activity; read-out: Inhibition of HCV genotype 1b
Description: Biological activity of the compounds of the invention was determined using an HCV replicon assay. The HCV 1b_Huh-Luc/Neo-ET cell line persistently expressing a bicistronic genotype 1b replicon in Huh 7 cells was obtained from ReBLikon GMBH. This cell line was used to test compound inhibition using luciferase enzyme activity readout as a measurement of compound inhibition of replicon levels.
On Day 1 (the day after plating cells), each compound is added in triplicate to the cells. Plates are incubated for 72 h prior to determining luciferase levels. Enzyme activity was measured using a Bright-Glo Kit (cat. number E2620) manufactured by Promega Corporation. The following equation was used to generate a percent control value for each compound.
% Control=(Average Compound Value/Average Control)*100
The EC50 value was determined using GraphPad Prism and the following equation:
Y=Bottom+(Top−Bottom)/(1+10̂((LogIC50−X)*HillSlope))
EC50 values of compounds are determined several times in the replicon assay. […]

Row | Structure (SMILES) | EC50 [nM]
1 | COC(=O)N[C@H](C(=O)N1CCC[C@H]1C(=O)N[C@H](C)c1ccc(-c2ccc(-c3cnc([C@@H]4CCCN4C(=O)[C@@H](NC(=O)OC)C4CCOCC4)[nH]3)cc2)cc1)C1CCOCC1 [Compound 103] | 10 to 999
2 | CC(C)(C)OC(=O)N[C@@H](C(=O)N1CCC[C@H]1C(=O)Nc1ccc(-c2ccc(-c3cnc([C@@H]4CCCN4C(=O)[C@H](NC(=O)OC(C)(C)C)c4ccccc4)[nH]3)cc2)cc1)c1ccccc1 [Compound 26] | < 1
3 | C[C@@H](NC(=O)C1CC1)C(=O)N1CCOC[C@H]1C(=O)Nc1ccc(-c2ccc(-c3cnc([C@@H]4COCCN4C(=O)[C@@H](C)NC(=O)C4CC4)[nH]3)cc2)cc1 [Compound 24] | 10 to 999
4 | COC(=O)N[C@H](C(=O)N1CCC[C@H]1C(=O)N[C@@H](C)c1ccc(-c2ccc(-c3cnc([C@@H]4CCCN4C(=O)[C@@H](NC(=O)OC)[C@@H](C)OC)[nH]3)cc2)cc1)[C@@H](C)OC [Compound 100] | < 1
5 | COC(=O)N[C@H](C(=O)N1CCC[C@H]1C(=O)N[C@H](C)c1ccc(-c2ccc(-c3cnc([C@@H]4CCCN4C(=O)[C@@H](NC(=O)OC)C(C)C)[nH]3)cc2)cc1)C(C)C [Compound 97] | 1 to 9.9
6 | COC(=O)N[C@H](C(=O)N1CCC[C@H]1C(=O)Nc1ccc(-c2ccc(-c3cnc([C@@H]4CCCN4C(=O)[C@@H](NC(=O)OC)C(C)C)[nH]3)cn2)cc1)C(C)C [Compound 71] | 1 to 9.9
7 | CC(C)(C)OC(=O)N[C@@H](C(=O)N1CCC[C@H]1c1ncc(-c2ccc(Oc3ccc(-c4cnc([C@@H]5CCCN5C(=O)[C@H](NC(=O)OC(C)(C)C)c5ccccc5)[nH]4)cc3)cc2)[nH]1)c1ccccc1 [Compound 52] | < 1
8 | COC(=O)N[C@H](C(=O)N1CCC[C@H]1C(=O)NCc1ccc(-c2ccc(-c3cnc([C@@H]4CCCN4C(=O)[C@@H](NC(=O)OC)C(C)C)[nH]3)cc2)cn1)C(C)C [Compound 119] | 10 to 999
9 | O=C(N[C@@H](C(=O)N1CCC[C@H]1C(=O)NCc1ccc(-c2ccc(-c3cnc([C@@H]4CCCN4C(=O)[C@H](NC(=O)C4CC4)c4ccccc4)[nH]3)cc2)cc1)c1ccccc1)C1CC1 [Compound 43] | < 1
10 | COC(=O)N[C@H](C(=O)N1CCC[C@H]1C(=O)N[C@@H](C)c1ccc(-c2ccc(-c3cnc([C@@H]4CCCN4C(=O)[C@@H](NC(=O)OC)C(C)C)[nH]3)cc2)cc1)C(C)C [Compound 95] | < 1
11 | COC(=O)N[C@@H](C(=O)N1CCC[C@H]1c1ncc(-c2ccc(-c3ccc(C(=O)NC[C@@H]4CCCN4C(=O)[C@H](NC(=O)N4CCN(C)CC4)c4ccccc4)cc3)cc2)[nH]1)c1ccccc1 [Compound 66] | < 1
12 | CC(C)(C)OC(=O)N[C@@H](C(=O)N1CCC[C@H]1COc1ccc(-c2ccc(-c3cnc([C@@H]4CCCN4C(=O)[C@H](NC(=O)OC(C)(C)C)c4ccccc4)[nH]3)cc2)cc1)c1ccccc1 [Compound 30] | < 1
13 | CC(C)(C)OC(=O)N[C@@H](C(=O)N1CCC[C@H]1c1ncc(-c2ccc(Sc3ccc(-c4cnc([C@@H]5CCCN5C(=O)[C@H](NC(=O)OC(C)(C)C)c5ccccc5)[nH]4)cc3)cc2)[nH]1)c1ccccc1 [Compound 46] | < 1
14 | COC(=O)N[C@H](C(=O)N1CCC[C@H]1CNC(=O)c1ccc(-c2ccc(-c3cnc([C@@H]4CCCN4C(=O)[C@@H](NC(=O)OC)C(C)C)[nH]3)cn2)cc1)C(C)C [Compound 78] | < 1
15 | CC(C)(C)OC(=O)N[C@@H](C(=O)N1CCC[C@H]1C(=O)NCc1ccc(-c2ccc(-c3cnc([C@@H]4CCCN4C(=O)[C@H](NC(=O)OC(C)(C)C)c4ccccc4)[nH]3)cc2)cc1)c1ccccc1 [Compound 33] | < 1
16 | C[C@@H](NC(=O)OC(C)(C)C)C(=O)N1CCC[C@H]1C(=O)Nc1ccc(-c2ccc(-c3cnc([C@@H]4COCCN4C(=O)[C@@H](C)NC(=O)OC(C)(C)C)[nH]3)cc2)cc1 [Compound 9] | 10 to 999
17 | COC(=O)N[C@@H](C(=O)N1CCC[C@H]1CNC(=O)c1ccc(-c2ccc(-c3cnc([C@@H]4CCCN4C(=O)[C@H](NC(=O)OC)c4ccccc4)[nH]3)cn2)cc1)c1ccccc1 [Compound 79] | < 1
18 | CC(C)(C)OC(=O)N[C@@H](C(=O)N1CCOC[C@H]1C(=O)Nc1ccc(-c2ccc(-c3cnc([C@@H]4CCCN4C(=O)[C@H](NC(=O)OC(C)(C)C)c4ccccc4)[nH]3)cc2)cc1)c1ccccc1 [Compound 21] | < 1
19 | C[C@@H](NC(=O)OC(C)(C)C)C(=O)N1CCC[C@H]1C(=O)Nc1ccc(-c2ccc(-c3cnc([C@@H]4CCCN4C(=O)[C@@H](C)NC(=O)OC(C)(C)C)[nH]3)cc2)cc1 [Compound 14] | 1 to 9.9
20 | COC(=O)N[C@H](C(=O)N1CCC[C@H]1C(=O)NCc1ccc(-c2ccc3nc([C@@H]4CCCN4C(=O)[C@@H](NC(=O)OC)C(C)C)[nH]c3c2)cn1)C(C)C [Compound 121] | 10 to 999

Row | Structure (SMILES) | EC50 [nM]
21 | COC(=O)N[C@H](C(=O)N1CCC[C@H]1C(=O)NCc1ccc(-c2ccc3cc(-c4cnc([C@@H]5CCCN5C(=O)[C@@H](NC(=O)OC)C(C)C)[nH]4)ccc3n2)cc1)C(C)C [Compound 86] | 1 to 9.9
22 | COC(=O)N[C@@H](C(=O)N1CCC[C@H]1CNC(=O)c1ccc(-c2ccc(-c3cnc([C@@H]4CCCN4C(=O)[C@@H](c4ccccc4)N4CCOCC4)[nH]3)cc2)cc1)c1ccccc1 [Compound 62] | < 1
23 | COC(=O)N[C@@H](C)C(=O)N1CCC[C@H]1C(=O)N[C@H](C)c1ccc(-c2ccc(-c3cnc([C@@H]4CCCN4C(=O)[C@H](C)NC(=O)OC)[nH]3)cc2)cc1 [Compound 96] | 1 to 9.9
24 | CN1CCN(C(=O)N[C@@H](C(=O)N2CCC[C@H]2CNC(=O)c2ccc(-c3ccc(-c4cnc([C@@H]5CCCN5C(=O)[C@H](NC(=O)N5CCN(C)CC5)c5ccccc5)[nH]4)cc3)cc2)c2ccccc2)CC1 [Compound 57] | 1 to 9.9
25 | COC(=O)N[C@H](C(=O)N1CCC[C@H]1C(=O)NCc1ccc(-c2ccc(-c3cnc([C@@H]4CCCN4C(=O)[C@@H](NC(=O)OC)[C@@H](C)OC)[nH]3)cc2)cc1)[C@@H](C)OC [Compound 106] | 10 to 999
26 | COC(=O)N[C@@H](C(=O)N1CCC[C@H]1CNC(=O)c1ccc(-c2ccc(-c3cnc([C@@H]4CCCN4C(=O)[C@H](NC(=O)OC)c4ccccc4)[nH]3)nc2)cc1)c1ccccc1 [Compound 91] | < 1
27 | COC(=O)N[C@H](C(=O)N[C@@H](C)c1ncc(-c2ccc(-c3ccc(C(=O)NC[C@@H]4CCCN4C(=O)[C@@H](NC(=O)OC)C(C)C)nc3)cc2)[nH]1)C(C)C [Compound 92] | 1 to 9.9
28 | COC(=O)N[C@H](C(=O)N1CCC[C@H]1CNC(=O)c1ccc(-c2ccc3c(ccc4nc([C@@H]5CCCN5C(=O)[C@@H](NC(=O)OC)C(C)C)[nH]c43)c2)cc1)C(C)C [Compound 113] | < 1
29 | COC(=O)N[C@H](C(=O)N1CCC[C@H]1C(=O)Nc1ccc(-c2ccc(-c3cnc([C@@H]4CCCN4C(=O)[C@@H](NC(=O)OC)C(C)C)[nH]3)cc2)cc1)C(C)C [Compound 109] | 10 to 999
30 | COC(=O)N[C@H](C(=O)N1CCC[C@H]1C(=O)NCc1ccc(-c2ccc(-c3cnc([C@@H]4CCCN4C(=O)[C@@H](NC(=O)OC)C4CCOCC4)[nH]3)cc2)cc1)C1CCOCC1 [Compound 107] | 10 to 999
31 | COC(=O)N[C@H](C(=O)N1CCC[C@H]1CNC(=O)c1ccc(-c2ccc(-c3cnc([C@@H]4CCCN4C(=O)[C@@H](NC(=O)OC)[C@@H](C)OC)[nH]3)cc2)cc1)[C@@H](C)OC [Compound 122] | < 1
32 | O=C(NC[C@@H]1CCCN1C(=O)[C@H](NC(=O)N1CCOCC1)c1ccccc1)c1ccc(-c2ccc(-c3cnc([C@@H]4CCCN4C(=O)[C@H](NC(=O)N4CCOCC4)c4ccccc4)[nH]3)cc2)cc1 [Compound 56] | < 1
33 | CC(C)[C@@H](NC(=O)OC(C)(C)C)C(=O)N1CCC[C@H]1c1ncc(-c2ccc(Oc3ccc(-c4cnc([C@@H]5CCCN5C(=O)[C@H](NC(=O)OC(C)(C)C)C(C)C)[nH]4)cc3)cc2)[nH]1 [Compound 48] | 1 to 9.9
34 | C=CC[C@H](NC(=O)OC)C(=O)N1CCC[C@H]1C(=O)NCc1ccc(-c2ccc(-c3cnc([C@@H]4CCCN4C(=O)[C@H](CC=C)NC(=O)OC)[nH]3)cc2)cc1 [Compound 80] | 1 to 9.9
35 | [2H]C([2H])([2H])C([2H])(C([2H])([2H])[2H])C([2H])(NC(=O)OC)C(=O)N1CCC[C@H]1c1ncc(-c2ccc(-c3ccc(CNC(=O)[C@@H]4CCCN4C(=O)[C@@]([2H])(NC(=O)OC)C([2H])(C([2H])([2H])[2H])C([2H])([2H])[2H])cc3)cc2)[nH]1 (stereo partly shown) [Compound 82] | 1 to 9.9
36 | [2H]C([2H])([2H])C([2H])(C([2H])([2H])[2H])C([2H])(NC(=O)OC)C(=O)N1CCC[C@H]1c1ncc(-c2ccc(-c3ccc(NC(=O)[C@@H]4CCCN4C(=O)[C@@]([2H])(NC(=O)OC)C([2H])(C([2H])([2H])[2H])C([2H])([2H])[2H])cc3)cc2)[nH]1 (stereo partly shown) [Compound 77] | < 1
37 | COC(=O)N[C@@H](C(=O)N1CCC[C@H]1c1ncc(-c2ccc(-c3ccc(NC(=O)[C@@H]4CCCN4C(=O)[C@@H](c4ccccc4)N(C)C)cc3)cc2)[nH]1)c1ccccc1 [Compound 60] | < 1
38 | O=C(N[C@@H](C(=O)N1CCC[C@H]1C(=O)Nc1ccc(-c2ccc(-c3cnc([C@@H]4CCCN4C(=O)[C@H](NC(=O)C4CC4)c4ccccc4)[nH]3)cc2)cc1)c1ccccc1)C1CC1 [Compound 27] | < 1
39 | C[C@@H](NC(=O)OC(C)(C)C)C(=O)N1CCOC[C@H]1C(=O)Nc1ccc(-c2ccc(-c3cnc([C@@H]4COCCN4C(=O)[C@@H](C)NC(=O)OC(C)(C)C)[nH]3)cc2)cc1 [Compound 17] | 10 to 999
40 | O=C(Nc1ccc(-c2ccc(-c3cnc([C@@H]4COCCN4C(=O)[C@H](NC(=O)N4CCOCC4)c4ccccc4)[nH]3)cc2)cc1)[C@@H]1COCCN1C(=O)[C@H](NC(=O)N1CCOCC1)c1ccccc1 [Compound 2] | 1 to 9.9
